Experimental data taken from patent USRE39113E1 (priority 1998, dated 2006).

Key:
[1] = test system: hot-plate assay in mouses; assay: hot-plate assay in mice; format: in vivo, Swiss albino mice; conditions: ip, hot plate 55° C., licking of the paws
Protocol: The analgesic activity of the products object of the invention have been studied in several assays using the Swiss albino mice as the experimental animal. The assay of contortions induced by phenylbenzoquinone, the hot-plate assay and the hot-point assay are now described. The examples that are presented by way of illustration describe some of the pharmacological assays and should not limit the scope of the invention in any way.
The hot-plate assay was carried out following the method described by M. Ocana et al. (Europ J. Pharmacol. 186: 377-378, 1990). The product under study was administered s.c. or i.p. and 30 minutes later the analgesic effect was registered. For this the animals were placed on a metallic surface kept at 50° C. or 55° C. and the time registered (latency) until the licked their hind legs and a jump. The analgesic activity was calculated at each dose, comparing the potency of the treated group with the control group. Using the results obtained the ED-50 was calculated.

mouse's tail = assay: animal or person; format: in vivo, Swiss albino mice; conditions: sc

SMILES	ED50 (mouse's tail)	other results
Clc1ccc(C2=CCN(CCCCn3cc(Cl)cn3)CC2)cc1 [Example 47a]	–	Δ Latency ([1]; 40 mg/kg): 5 s
C1=C(c2ccccc2)CCN(CCCCn2cccc2)C1 [Example 51a]	5 mg/kg	–
Brc1ccc(C2=CCN(CCCCn3cncn3)CC2)cc1 [Example 59a]	60 mg/kg	–
Clc1ccc(C2=CCN(CCCCn3ccnc3-c3ccccc3)CC2)cc1 [Example 63a]	70 mg/kg	–
CC(C)=CCN1CCC2(C)c3cc(O)ccc3CC1C2C (centres unmarked) [Pentazocine, reference compound]	–	Δ Latency ([1]; 10 mg/kg): 6 s
